pKi: −log10 of the molar value. Read-outs that look alike come from different tables or passages of the source.
How the values were obtained:
[1] = target: T1, Alpha-2D Adrenergic Receptor (Rattus norvegicus, UniProt P22909); assay: Alpha-2D adrenergic receptor binding assay (3H-para-aminoclonidine, rat cortex synaptic membranes)
T1 construct: aliquots of the synaptic membrane fraction, the ligand ^3H-para-aminoclonidine and test drug; from tissue; host or cells: rat brain cortex synaptic membrane fraction (male Wistar rats)
T1 sequence (P22909 1-465): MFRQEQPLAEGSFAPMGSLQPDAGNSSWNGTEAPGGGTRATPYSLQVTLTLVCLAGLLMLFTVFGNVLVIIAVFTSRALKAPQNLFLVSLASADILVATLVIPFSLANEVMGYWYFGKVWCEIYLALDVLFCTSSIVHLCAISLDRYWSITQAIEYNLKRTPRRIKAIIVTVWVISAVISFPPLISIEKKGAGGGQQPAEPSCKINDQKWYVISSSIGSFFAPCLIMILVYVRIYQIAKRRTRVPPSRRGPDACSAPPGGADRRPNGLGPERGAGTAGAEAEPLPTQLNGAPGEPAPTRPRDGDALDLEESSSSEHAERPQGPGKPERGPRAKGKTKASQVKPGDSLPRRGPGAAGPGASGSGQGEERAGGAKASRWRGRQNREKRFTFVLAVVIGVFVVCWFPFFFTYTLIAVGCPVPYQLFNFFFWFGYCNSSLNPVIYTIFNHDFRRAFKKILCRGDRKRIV
Procedure: Alpha-2D Adrenergic Receptor Binding Assay
Male, Wistar rats (150-250 g, VAF, Charles River, Kingston, N.Y.) are sacrificed by cervical dislocation and their brains removed and placed immediately in ice cold HEPES buffered sucrose. The cortex is dissected out and homogenized in 20 volumes of HEPES sucrose in a Teflon™-glass homogenizer. The homogenate is centrifuged at 1000 g for 10 min, and the resulting supernatant centrifuged at 42,000 g for 10 min. The resulting pellet is resuspended in 30 volumes of 3 mM potassium phosphate buffer, pH 7.5, preincubated at 25 ° C. for 30 min and recentrifuged. The resulting pellet is resuspended as described above and used for the receptor binding assay. […] The incubation is terminated by filtration of the tube contents through glass fiber filter sheets. Following washing of the sheets with 10 mM HEPES buffer, the adhering radioactivity is quantified by liquid scintillation spectrometry.
Binding of the test drug to the receptor is determined by comparing the amount of radiolabeled ligand bound in control tubes without drug to the amount of radiolabeled ligand bound in the presence of the drug. Dose-response data are analyzed with LIGAND, a nonlinear curve fitting program designed specifically for the analysis of ligand binding data.

[2] = system: mouse acetylcholine bromide-induced abdominal constriction; assay: Mouse acetylcholine bromide-induced abdominal constriction assay (MAIT); format: in vivo; conditions: sc; % inhibition of abdominal constriction; dose not given
[3] = system: mouse acetylcholine bromide-induced abdominal constriction; assay: as above; format: in vivo; conditions: po; % inhibition of abdominal constriction; dose not given
Procedure: Mouse Acetylcholine Bromide-Induced Abdominal Constriction Assay (MAIT)
The mouse acetylcholine bromide-induced abdominal constriction assay, as described by Collier et al. in Brit. […] The test drugs or appropriate vehicle were administered orally (p.o.) and 30 minutes later the animal received an intraperitoneal (i.p.) injection of 5.5 mg/kg acetylcholine bromide (Matheson, Coleman and Bell, East Rutherford, N.J.). The mice were then placed in groups of three into glass bell jars and observed for a ten minute observation period for the occurrence of an abdominal constriction response (defined as a wave of constriction and elongation passing caudally along the abdominal wall, accompanied by a twisting of the trunk and followed by extension of the hind limbs). The percent inhibition of this response to a nociceptive stimulus (equated to % analgesia) was calculated as follows: The % Inhibition of response, i.e., % analgesia is equal to the difference between the number of control animals responding and the number of drug-treated animals responding times 100 divided by the number of control animals responding.
At least 15 animals were used for control and in each of the drug treated groups.

[4] = 3H-para-aminoclonidine, rat cortex membranes, read-out: α2D Ki

Row | SMILES | pKi [1] | MAIT [2] [sc] | MAIT [3] [po] | pKi [1, 4]
1 | CCc1csc(C=Cc2c[nH]cn2)c1 [Cp-18] | 7.59 | 53 | – | –
2 | c1csc(CCc2c[nH]cn2)c1 [Cp-2] | 10.00 | – | 60 | –
3 | CCc1csc(CCc2c[nH]cn2)c1 [Cp-8] | 9.82 | – | 20 | –
4 | Cc1ccsc1/C=C/c1c[nH]cn1 [Cp-13] | 8.49 | – | – | –
5 | c1nc(CCc2ccsc2)c[nH]1 [Cp-3] | 9.28 | – | 53 | –
6 | Cc1ccc(CCc2c[nH]cn2)s1 [Cp-4] | 8.96 | – | 7 | –
7 | Brc1csc(C=Cc2c[nH]cn2)c1 [Cp-16] | 7.51 | – | 20 | –
8 | Clc1ccc(/C=C/c2c[nH]cn2)s1 [Cp-14] | 7.77 | – | 20 | –
9 | Cc1ccsc1CCc1c[nH]cn1 [Cp-1] | – | – | 93 | 10.12
10 | CCc1ccc(CCc2c[nH]cn2)s1 [Cp-6] | 8.92 | – | 20 | –
11 | CCc1ccc(/C=C/c2c[nH]cn2)s1 [Cp-17] | 7.66 | 13 | – | –
12 | CCc1sccc1CCc1c[nH]cn1 [Cp-5] | – | – | 67 | 8.74
13 | Cc1ccc(/C=C/c2c[nH]cn2)s1 [Cp-12] | 7.66 | – | 7 | –
